Settings in one data set: not given
The melting point is the temperature, or range, at which the solid turns liquid. Regarding `OC[C@H]1O[C@@](CO)(O[C@H]2O[C@H](CO)[C@@H](O)[C@H](O)[C@H]2O)[C@@H](O[C@H]2O[C@H](CO)[C@@H](O)[C@H](O)[C@H]2O)[C@@H]1O`, the melting point came out at 153 °C.
Same read-out and setting: next, `Oc1c(I)cc(I)c2cccnc12`: 210 °C; `CCOC(=O)C(c1c(O)c2ccccc2oc1=O)c1c(O)c2ccccc2oc1=O`: 154 °C.
Same read-out and setting: under `c1ccc2c(c1)OCCOCCOc1ccccc1OCCOCCO2` stands 163 °C; under `OC[C@@H]1CCCNC1`, 61 °C.
`CC(Oc1ccc2ccccc2c1)C(O)=Nc1ccccc1` (centres undefined) showed a log10 vapour pressure (mmHg) of -10.7 and a melting point of 128 °C.
For orientation: boiling point means the temperature at which the vapour pressure of the liquid equals the pressure above it. For `CCCN1CCCCC1`, the boiling point was found to be 152 °C.
With `NS(=O)(=O)c1ccc(S(=O)(=O)CCCO)c([N+](=O)[O-])c1`, the melting point came to 169 °C.
In turn, `O=C(O)Cc1c(-c2ccccc2)c(-c2ccccc2)nn1-c1ccccc1` gave a melting point of 200 °C.
Take `CC(C)(C)c1ccc(C(C)(C)C)o1`: the boiling point is 210 °C.
The compound `CCCCCCCCCCI` showed a log10 vapour pressure (mmHg) of -1.85 and a melting point of -16.3 °C.
In turn, `COc1nccnc1NS(=O)(=O)c1ccc(N)cc1` displayed a melting point of 176 °C.
The same measure, in the same setting: under `CC(=O)[C@H]1CC[C@H]2[C@@H]3CC[C@H]4C[C@H](O)CC[C@]4(C)[C@H]3CC[C@]12C` stands 174 °C.
For `CC1CN(C2CCCCCCCCCCC2)CC(C)O1` (centres undefined), the log10 vapour pressure (mmHg) was -5.44 and the melting point was 71 °C.
`CCCCCCCCCCCC(=O)OCCOC(=O)CCCCCCCCCCC` registered a melting point of 56.6 °C.
Turning to `CC(=O)OC[C@H]1OC(OC(C)=O)[C@H](OC(C)=O)[C@@H](OC(C)=O)[C@@H]1OC(C)=O` (some centres undefined), the melting point was determined as 124 °C.
Compound `C=CC(C)C(C)CC` (centres undefined) gave a boiling point of 112 °C.
`FC(F)Br` displayed a boiling point of -15.5 °C and a melting point of -145 °C.
As to `CCCC[Si](C)(C)Cl`, the boiling point was determined as 139 °C.
Compound `CC(C)S` returned a boiling point of 52.5 °C, a log10 vapour pressure (mmHg) of 2.44 and a melting point of -130 °C.
Take `C=CC#CCC`: the boiling point was found to be 85 °C.
`OC[C@H]1O[C@H](O[C@H]2O[C@H](CO)[C@@H](O)[C@H](O)[C@H]2O)[C@H](O)[C@@H](O)[C@@H]1O`: the melting point was determined as 203 °C.
As for `CCOC(=O)CC#N`, the boiling point was found to be 210 °C, the log10 vapour pressure (mmHg) was -1.41, the melting point is -22.5 °C and the ready biodegradability result is “readily biodegradable”.
As for `CON(C)C(=O)Nc1ccc(Br)c(Cl)c1`, the log10 Koc (L/kg) stood at 2.7, the log10 vapour pressure (mmHg) was -6.4 and the melting point was 96 °C.
Consider `O=C1OC(=O)C2C1C1(Cl)C(Cl)=C(Cl)C2(Cl)C1(Cl)Cl` (centres undefined), for which the melting point is 233 °C.
As for `CCCCCCF`, the boiling point turned out to be 91.5 °C, the log10 vapour pressure (mmHg) is 1.76 and the melting point was -103 °C.
As to `C=CCS`, the boiling point stood at 65 °C and the log10 vapour pressure (mmHg) was 2.72.
On to `CCOC(=O)c1ccc(Cl)cc1`, for which the boiling point came to 238 °C.
In the case of `COc1cccc(C(=O)O)c1`, the melting point was determined as 107 °C and the ready biodegradability result is given as “readily biodegradable”.
`Brc1ccc(Br)s1`: the boiling point is 210 °C and the melting point is -6 °C.
As for `O=C(O)C1CC1`, the boiling point was 183 °C, the log10 vapour pressure (mmHg) is -0.62 and the melting point stood at 18.5 °C.
For `O=C1CC(C(=O)O)=CO1`, the melting point was found to be 164 °C.
For `CC12CC3CC(C)(C1)CC(N)(C3)C2`, the melting point is 258 °C.
The same measure, in the same setting: next, `C[C@@H]1C(=O)OC[C@H]2[C@@H]1CC[C@@H]2C`: 60.5 °C; `Nc1ccc(C(=O)O)cn1`: 312 °C.
For the compound `CCCCCCCCCCSSCCCCCCCCCC`, the ready biodegradability entry is on record as “not readily biodegradable”.
In turn, `c1ccc(CNCc2ccccc2)cc1` yielded a log10 vapour pressure (mmHg) of -3.1 and a melting point of -26 °C.
`CCCCC(CC)COC(=O)c1ccc(C(=O)OCC(CC)CCCC)cc1` (centres undefined) had a boiling point of 383 °C, a log10 Koc (L/kg) of 4.16 and a melting point of -48 °C.
On to `CCCc1ccccc1`, for which the boiling point is 159 °C, the log10 Henry constant (atm·m³/mol) is -1.98, the log10 Koa is 4.09 and the log10 Koc (L/kg) was 2.87. For the same compound, the log10 biodegradation half-life (days) was 0.602, the log10 vapour pressure (mmHg) worked out at 0.534, the melting point was -99.5 °C and the ready biodegradability entry is given as “readily biodegradable”.
As to `CCCCC(CC)C(C)C` (centres undefined), the boiling point was determined as 163 °C.
`O=C(O)CCCl` displayed a boiling point of 156 °C and a melting point of 41 °C.
The compound `CN(C)c1ccccc1N` came in with a boiling point of 218 °C.
The compound `C[Si]1(C)O[Si](C)(C)O[Si](C)(C)O1` showed a boiling point of 134 °C, a log10 vapour pressure (mmHg) of 0.548 and a melting point of 64.5 °C.
`CNCCN`: the boiling point is 115 °C.
For `CCc1ccc(Cc2ccccc2)cc1`, the boiling point was 297 °C and the melting point was -24 °C.
Turning to `NC(=O)Nc1cccc(F)c1`, the log10 Koc (L/kg) came to 1.77.
Consider `CCCCCCCCCCCCCCCC/C=C/C1CC(=O)OC1=O` (centres undefined), for which the ready biodegradability entry is reported as “not readily biodegradable”.
For `COc1ccc(COC(C)=O)cc1`, the boiling point was determined as 270 °C and the melting point came to 84 °C.
As to `CC(CCO)CCO`, the ready biodegradability result is given as “readily biodegradable”.
`O=[N+]([O-])c1cccc2cccc([N+](=O)[O-])c12`: the melting point was found to be 173 °C.
`Clc1cc2c(Cl)c(Cl)c(Cl)c(Cl)c2cc1Cl` showed a log10 Koa of 9.58 and a log10 vapour pressure (mmHg) of -6.46.
For the compound `O=Cc1ccc([N+](=O)[O-])cc1[N+](=O)[O-]`, the melting point was found to be 72 °C.
`FC1(F)C(F)(F)C(F)(Cl)C1(F)Cl` (centres undefined): the boiling point is 59.5 °C, the log10 vapour pressure (mmHg) amounted to 2.36 and the melting point is -24.2 °C.
For `CCC1CCNCC1`, the boiling point came to 154 °C.
Take `O=P(Oc1ccccc1)(Oc1ccccc1)Oc1ccccc1`: the log10 vapour pressure (mmHg) is -5.2, the melting point is 50.5 °C and the ready biodegradability entry is “readily biodegradable”.
Take `Cc1cccc2cccc(C)c12`: the boiling point turned out to be 270 °C, the log10 vapour pressure (mmHg) is -2.32 and the melting point stood at 65 °C.
With `Oc1ccc2c(c1)[C@@]13CCCC[C@H]1[C@@H](C2)N(CCc1ccccc1)CC3`, the melting point amounted to 244 °C.
With `CC(C)c1ccc(Br)cc1`, the boiling point amounted to 219 °C and the melting point was -22.5 °C.
`CC(C)OC(=O)CCl` came in with a boiling point of 150 °C and a log10 vapour pressure (mmHg) of 0.613.
As to `CC(C)NCC(O)c1ccc(O)c(O)c1` (centres undefined), the melting point was found to be 170 °C.
In the case of `CCC(C)c1cc([N+](=O)[O-])cc([N+](=O)[O-])c1OC(C)=O` (centres undefined), the log10 vapour pressure (mmHg) was -3.22 and the melting point is 26 °C.
For `O=c1[nH]cnc2c1ncn2[C@H]1CC[C@@H](CO)O1`, the melting point amounted to 162 °C.
With `O=C(c1ccccc1)C1CCCCC1`, the melting point turned out to be 56 °C.
`c1ccc2c(c1)ccc1c2ccc2c3ccccc3ccc21`: the boiling point stood at 519 °C and the melting point was found to be 368 °C.
With `CC(C)(c1ccccc1)c1ccc(Nc2ccc(C(C)(C)c3ccccc3)cc2)cc1`, the ready biodegradability result is on record as “not readily biodegradable”.
On to `CCOC(=O)C(Br)Br`, for which the boiling point worked out at 194 °C.
`COc1cc2c(c(OC)c1OC)-c1ccc(SC)c(=O)cc1[C@@H](NC(C)=O)CC2` showed a melting point of 193 °C.

The data set is the same for the next values; noted with them: fish.
`Cc1cc(C)c2c(c1)CC(C)(C)CC2` came in with a log10 biotransformation half-life (days) of 0.32.
On to `O=P(Oc1ccccc1)(Oc1ccccc1)Oc1ccccc1`, for which the log10 BCF is 2.28 and the log10 biotransformation half-life (days) is -0.76.

Values taken from the OPERA property sets (Mansouri et al. 2018).
